Values of other authors in patent US6365131B1, “Pharmaceutical dental formulation for topical application of metronidazole benzoate, chlorhexidine gluconate and local anesthetic” (priority 1997, dated 2002).

## CCOC(=O)c1ccc(N)cc1 [Benzocaine, ethyl ester of p-Aminobenzoic acid]
After the application to skin or mucosal surface
  Time to peak effect: ≤ 1 min

## CCN(CC)CC(=O)Nc1c(C)cccc1C [Lidocaine]
Depending on the site of administration
  Onset of anesthesia: within a few minutes
In words
  Duration of action: intermediate duration of action
